Reference: patent publication US6387893B1, “Spirotricyclic substituted azacycloalkane derivatives and uses thereof” (Merck & Co., Inc., priority 1999, dated 2002)
pKi: −log10 of the molar value. Counter-ions that a name gives are not always drawn.

Assays:
[1] = target: T1, human alpha 1a adrenergic receptor (Homo sapiens, UniProt P35348); assay: Screening assay: alpha 1a adrenergic receptor binding ([125I]-HEAT competition); conditions: membranes from stably transfected human alpha 1a cell line (ATCC CRL 11140), 100 pM [125I]-HEAT
T1 sequence (P35348 1-466): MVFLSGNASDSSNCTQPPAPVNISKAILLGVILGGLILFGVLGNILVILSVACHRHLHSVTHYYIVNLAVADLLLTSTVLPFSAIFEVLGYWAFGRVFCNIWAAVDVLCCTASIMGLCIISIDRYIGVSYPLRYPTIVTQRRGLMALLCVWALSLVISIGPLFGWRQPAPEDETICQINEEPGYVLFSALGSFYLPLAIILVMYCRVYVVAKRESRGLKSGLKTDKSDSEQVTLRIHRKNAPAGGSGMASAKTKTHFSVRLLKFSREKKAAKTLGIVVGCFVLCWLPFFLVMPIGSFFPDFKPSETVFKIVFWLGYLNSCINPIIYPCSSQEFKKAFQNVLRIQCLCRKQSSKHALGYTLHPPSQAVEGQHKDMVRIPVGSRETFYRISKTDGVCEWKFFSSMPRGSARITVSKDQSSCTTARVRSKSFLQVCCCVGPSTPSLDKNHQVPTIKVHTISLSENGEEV
Protocol: Screening Assay: Alpha 1a Adrenergic Receptor Binding
Membranes prepared from the stably transfected human alpha 1a cell line (ATCC CRL 11140) were used to identify compounds that bind to the human alpha 1a adrenergic receptor. These competition binding reactions (total volume=200 μl) contained 50 mM Tris-HCl pH. 7.4, 5 mM EDTA, 150 mM NaCl, 100 pM [^125I]-HEAT, membranes prepared from the alpha 1a cell line and increasing amounts of unlabeled ligand. Reactions were incubated at room temperature for one hour with shaking. Reactions were filtered onto Whatman GF/C glass fiber filters with a Inotec 96 well cell harvester. Filters were washed three times with ice cold buffer and bound radioactivity was determined (Ki).

melting point	pKi [1]	Compound
138 to 139 °C	> 7.70	O=C(NCCCN1CCC2(CC1)c1ccccc1Oc1ccccc12)N1C(=O)OC[C@@H]1c1ccc(F)c(F)c1 [Example 35, 1′-{3-[(4S)-(3,4-Difluorophenyl)-2-oxooxazolidin-3-carbonylamino]propyl}spiroxanthene-9,4′-piperidine]
184 to 193 °C	–	O=C(NCCCN1CCC2(CC1)c1ccccc1[S+]([O-])c1ccccc12)N1C(=O)OC[C@@H]1c1ccc(F)c(F)c1 (as salt: HCl) [Example 26, 1′-{3-[(4S)-(3,4-Difluorophenyl)-2-oxooxazolidin-3-carbonylamino]propyl}-(10-oxo-spirothioxanthene-9,4′-piperidine)]
201 to 209 °C	–	COCC1=C(C(=O)OC)[C@H](c2ccc(F)c(F)c2)N(C(=O)NCCCN2CCC3(CC2)c2ccccc2-c2cccnc23)C(=O)N1 (as salt: hydrochloride) [Example 53, 1,2,3,6-tetrahydro-1-[3-((spiro(9H-indeno[2,1-b]pyridine)-9,4′-piperidin)-1′-yl)propylaminocarbonyl]-5-methoxycarbonyl-4-methoxymethyl-6(S)-(3,4-difluorophenyl)-2-oxopyrimidine]
140 to 176 °C	–	O=C(NCCCN1CCC2(CC1)c1ccccc1Sc1ccccc12)N1C(=O)OC[C@@H]1c1ccc(F)c(F)c1 (as salt: HCl)
